Laboratory results published in US20230104936A1, “TRPML MODULATORS” (Casma Therapeutics, Inc., priority 2019, published 2023).

System: TFEB
Test: TFEB nuclear translocation assay, HeLa wt cells
Format: cell-based
Settings: Homo sapiens, HeLa, 2 h, 2 hrs compound treatment, Table 1 does not say HeLa wt or TRPML1 KO
How it was run: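 HeLa wt cells were treated with compound for 2 hrs at 37° C, then fixed in 4% PFA and immunostained for TFEB with an Alexa 488 secondary and Hoechst nuclear counterstain. Automated epifluorescence imaging at ×20 gave the ratio of nuclear TFEB intensity to a perinuclear ring region, from which AC50 was derived.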

O=S(=O)(Nc1cccc(Cl)c1N1CCOCC1)c1cccc(C2CC2)c1 [Compound A-390, N-[3-chloro-2-(morpholin-4-yl)phenyl]-3-cyclopropylbenzene-1-sulfonamide] was tested, and the AC50 was no more than 2000 nM.

For O=S(=O)(Nc1cccc(Cl)c1N1CCOCC1)c1ccc(C2CC2)cc1 [Compound A-391, N-[3-chloro-2-(morpholin-4-yl)phenyl]-4-cyclopropylbenzene-1-sulfonamide], the AC50 was 2010 to 8000 nM.

Work on O=S(=O)(Nc1cccc(Cl)c1N1CCOCC1)c1ccccc1C1CC1 [Compound A-392, N-[3-chloro-2-(morpholin-4-yl)phenyl]-2-cyclopropylbenzene-1-sulfonamide] yielded an AC50 of 2010 to 8000 nM.

Molecule O=S(=O)(CC1CCC2(CCCC2)O1)Nc1cccc(Cl)c1N1CCOCC1 (centres unmarked) [Compound A-393, N-[3-chloro-2-(morpholin-4-yl)phenyl]-1-{1-oxaspiro[4.4]nonan-2-yl}methanesulfonamide] has an AC50 of 8010 to 9990 nM.

Work on O=S(=O)(CC12CC3CC(CC(C3)C1)C2)Nc1cccc(Cl)c1N1CCOCC1 [Compound A-394, 1-(adamantan-1-yl)-N-[3-chloro-2-(morpholin-4-yl)phenyl]methanesulfonamide] yielded an AC50 of 2010 to 8000 nM.

Molecule O=S(=O)(Nc1cc(Cl)ccc1N1CCC2(COC2)C1)c1ccc2c(c1)CCC2 [Compound A-395, N-(5-chloro-2-{2-oxa-6-azaspiro[3.4]octan-6-yl}phenyl)-2,3-dihydro-1H-indene-5-sulfonamide] has an AC50 of no less than 10000 nM.

O=S(=O)(Nc1cc(Cl)ccc1N1CC2(CCC2)OC2(CCC2)C1)c1ccc2c(c1)CCC2 [Compound A-396, N-(5-chloro-2-{5-oxa-11-azadispiro[3.1.3^6.3^4]dodecan-11-yl}phenyl)-2,3-dihydro-1H-indene-5-sulfonamide] gave an AC50 of no more than 2000 nM.

Molecule O=S(=O)(Nc1cc(Cl)ccc1N1CC2(CCC2)C1C1CCCO1)c1ccc2c(c1)CCC2 (centres unmarked) [Compound A-397, N-{5-chloro-2-[1-(oxolan-2-yl)-2-azaspiro[3.3]heptan-2-yl]phenyl}-2,3-dihydro-1H-indene-5-sulfonamide] has an AC50 of 2010 to 8000 nM.

CN1Cc2ccccc2C2(CCN(c3ccccc3NS(=O)(=O)c3ccc(S(C)(=O)=O)cc3)CC2)C1 [Compound A-398, 4-methanesulfonyl-N-(2-{2-methyl-2,3-dihydro-1H-spiro[isoquinoline-4,4′-piperidin]-1′-yl}phenyl)benzene-1-sulfonamide; formic acid] was tested, and the AC50 was 2010 to 8000 nM.

CN(C)S(=O)(=O)c1ccc(S(=O)(=O)Nc2ccccc2N2CCN(C(=O)C34CC5CC(CC(C5)C3)C4)CC2)cc1 [Compound A-399, N4-{2-[4-(adamantane-1-carbonyl)piperazin-1-yl]phenyl}-N1,N1-dimethylbenzene-1,4-disulfonamide] was tested, and the AC50 was no more than 2000 nM.

CN(C)S(=O)(=O)c1ccc(S(=O)(=O)Nc2cc(Cl)ccc2N2CCN(C(=O)C(C)(C)C)CC2)cc1 [Compound A-400, N4-{5-chloro-2-[4-(2,2-dimethylpropanoyl)piperazin-1-yl]phenyl}-N1,N1-dimethylbenzene-1,4-disulfonamide] was tested, and the AC50 was 2010 to 8000 nM.

Molecule CN(C)S(=O)(=O)c1ccc(S(=O)(=O)Nc2ccccc2N2CCC(O)(c3ccncc3F)CC2)cc1 [Compound A-401, N4-{2-[4-(3-fluoropyridin-4-yl)-4-hydroxypiperidin-1-yl]phenyl}-N1,N1-dimethylbenzene-1,4-disulfonamide] has an AC50 of no less than 10000 nM.

CS(=O)(=O)c1ccc(S(=O)(=O)Nc2ccccc2N2CCC3(CC2)OCCc2ccccc23)cc1 [Compound A-402, N-(2-{3,4-dihydrospiro[2-benzopyran-1,4′-piperidin]-1′-yl}phenyl)-4-methanesulfonylbenzene-1-sulfonamide] was tested, and the AC50 was 2010 to 8000 nM.

With CS(=O)(=O)c1ccc(S(=O)(=O)Nc2ccccc2N2CCC3(CC2)CN(Cc2ccncc2)c2cc(F)ccc23)cc1 [Compound A-403, N-(2-{6-fluoro-1-[(pyridin-4-yl)methyl]-1,2-dihydrospiro[indole-3,4′-piperidin]-1′-yl}phenyl)-4-methanesulfonylbenzene-1-sulfonamide] the AC50 was 2010 to 8000 nM.

CN1CCC(N(C)S(=O)(=O)c2ccc(NC(=O)COc3ccccc3-c3ccccc3)cc2)CC1 [Compound A-404, 2-{[1,1′-biphenyl]-2-yloxy}-N-{4-[methyl(1-methylpiperidin-4-yl)sulfamoyl]phenyl}acetamide] was tested, and the AC50 was 2010 to 8000 nM.

For O=S(=O)(Nc1cc(Cl)ccc1N1CCCC12CCCOC2)c1ccc2c(c1)CCC2 (centres unmarked) [Compound A-405, N-(5-chloro-2-{7-oxa-1-azaspiro[4.5]decan-1-yl}phenyl)-2,3-dihydro-1H-indene-5-sulfonamide], the AC50 was 2010 to 8000 nM.

Molecule CN(C)S(=O)(=O)c1ccc(S(=O)(=O)Cc2ccccc2N2CCN(Cc3ccccc3)CC2)cc1 [Compound A-406, 4-((2-(4-benzylpiperazin-1-yl)benzyl)sulfonyl)-N,N-dimethylbenzenesulfonamide] has an AC50 of 2010 to 8000 nM.

With CS(=O)(=O)c1ccc(S(=O)(=O)Nc2ccccc2N2CCC3(CC2)CN(Cc2cccnc2)c2cc(F)ccc23)cc1 [Compound A-407, N-(2-{6-fluoro-1-[(pyridin-3-yl)methyl]-1,2-dihydrospiro[indole-3,4′-piperidin]-1′-yl}phenyl)-4-methanesulfonylbenzene-1-sulfonamide] the AC50 was no more than 2000 nM.

For Cc1ccc(S(=O)(=O)Nc2ccccc2N2CCC(O)(c3ccc(F)cn3)CC2)cc1 [Compound A-408, N-{2-[4-(5-fluoropyridin-2-yl)-4-hydroxypiperidin-1-yl]phenyl}-4-methylbenzene-1-sulfonamide], the AC50 was no less than 10000 nM.

Molecule COc1ccc(S(=O)(=O)Nc2ccccc2N2CCC(O)(c3ccc(F)cn3)CC2)cc1 [Compound A-409, N-{2-[4-(5-fluoropyridin-2-yl)-4-hydroxypiperidin-1-yl]phenyl}-4-methoxybenzene-1-sulfonamide] has an AC50 of no less than 10000 nM.

CC(C)(C)C(=O)N1CCN(c2ccccc2NS(=O)(=O)Cc2ccccc2)CC1 [Compound A-410, N-{2-[4-(2,2-dimethylpropanoyl)piperazin-1-yl]phenyl}-1-phenylmethanesulfonamide] gave an AC50 of 2010 to 8000 nM.

With CN1CC2(CCN(c3ccccc3NS(=O)(=O)c3ccc(S(=O)(=O)N(C)C)cc3)CC2)c2ccncc21 [Compound A-412, N1,N1-dimethyl-N4-(2-{1′-methyl-1′,2′-dihydrospiro[piperidine-4,3′-pyrrolo[2,3-c]pyridin]-1-yl}phenyl)benzene-1,4-disulfonamide] the AC50 was no more than 2000 nM.

CC(C)S(=O)(=O)c1ccc(S(=O)(=O)Nc2ccccc2N2CCC(O)(c3ccc(F)cn3)CC2)cc1 [Compound A-413] was tested, and the AC50 was 8010 to 9990 nM.

CN(C)S(=O)(=O)c1ccc(S(=O)(=O)Nc2ccccc2N2CCN(c3ccn(C(C)(C)C)n3)CC2)cc1 [Compound A-414, N4-{2-[4-(1-tert-butyl-1H-pyrazol-3-yl)piperazin-1-yl]phenyl}-N1,N1-dimethylbenzene-1,4-disulfonamide] was tested, and the AC50 was no more than 2000 nM.

With CN(C)S(=O)(=O)c1ccc(S(=O)(=O)Nc2ccccc2N2CCC(CNC(C)(C)C)CC2)cc1 [Compound A-415, N4-(2-{4-[(tert-butylamino)methyl]piperidin-1-yl}phenyl)-N1,N1-dimethylbenzene-1,4-disulfonamide] the AC50 was no more than 2000 nM.

C[C@H]1CN(c2ccccc2NS(=O)(=O)c2ccc(S(=O)(=O)N(C)C)cc2)CCN1C(=O)c1cscn1 [Compound A-416, N1,N1-dimethyl-N4-{2-[(3S)-3-methyl-4-(1,3-thiazole-4-carbonyl)piperazin-1-yl]phenyl}benzene-1,4-disulfonamide] gave an AC50 of 2010 to 8000 nM.

CN1CCN(CCCS(=O)(=O)Nc2ccccc2N2CCN(C(=O)C(C)(C)C)CC2)CC1 [Compound A-417, N-{2-[4-(2,2-dimethylpropanoyl)piperazin-1-yl]phenyl}-3-(4-methylpiperazin-1-yl)propane-1-sulfonamide] showed an AC50 of 2010 to 8000 nM.

Work on COCC(C)N1CCN(c2ccccc2NS(=O)(=O)c2ccc(S(=O)(=O)N(C)C)cc2)CC1 (centres unmarked) [Compound A-418, N4-{2-[4-(1-methoxypropan-2-yl)piperazin-1-yl]phenyl}-N1,N1-dimethylbenzene-1,4-disulfonamide] yielded an AC50 of 2010 to 8000 nM.

CN(C)S(=O)(=O)c1ccc(S(=O)(=O)Nc2ccccc2N2CCC(C3CCCO3)CC2)cc1 (centres unmarked) [Compound A-419, N1,N1-dimethyl-N4-{2-[4-(oxolan-2-yl)piperidin-1-yl]phenyl}benzene-1,4-disulfonamide] showed an AC50 of no more than 2000 nM.

Molecule CN(C)S(=O)(=O)c1ccc(S(=O)(=O)Nc2ccccc2N2CCC(O)(C3CC3)CC2)cc1 [Compound A-420, N4-[2-(4-cyclopropyl-4-hydroxypiperidin-1-yl)phenyl]-N1,N1-dimethylbenzene-1,4-disulfonamide] has an AC50 of 2010 to 8000 nM.

In the case of CN(C)S(=O)(=O)c1ccc(S(=O)(=O)Nc2ccccc2N2CCC3(CCOC3)CC2)cc1 [Compound A-422, N1,N1-dimethyl-N4-(2-{2-oxa-8-azaspiro[4.5]decan-8-yl}phenyl)benzene-1,4-disulfonamide], the AC50 is reported as no more than 2000 nM.

CS(=O)(=O)c1ccc(S(=O)(=O)Nc2ccccc2N2CCC3(CC2)CN(CC2CCOC2)c2cc(F)ccc23)cc1 (centres unmarked) [Compound A-423, N-(2-{6-fluoro-1-[(oxolan-3-yl)methyl]-1,2-dihydrospiro[indole-3,4′-piperidin]-1′-yl}phenyl)-4-methanesulfonylbenzene-1-sulfonamide] was tested, and the AC50 was no more than 2000 nM.

In the case of CNS(=O)(=O)c1ccc(S(=O)(=O)Nc2ccccc2N2CCC(c3ccc(Cl)cc3F)CC2)cc1 [Compound A-424, N1-{2-[4-(4-chloro-2-fluorophenyl)piperidin-1-yl]phenyl}-N4-methylbenzene-1,4-disulfonamide], the AC50 is reported as 2010 to 8000 nM.

Molecule CN(C)S(=O)(=O)c1ccc(S(=O)(=O)Nc2ccccc2N2CCN(C(=O)C3(C)CCC3)CC2)cc1 [Compound A-425, N1,N1-dimethyl-N4-{2-[4-(1-methylcyclobutanecarbonyl)piperazin-1-yl]phenyl}benzene-1,4-disulfonamide] has an AC50 of 2010 to 8000 nM.

With CCC(C)(C)CC(=O)N1CCN(c2ccccc2NS(=O)(=O)c2ccc(S(=O)(=O)N(C)C)cc2)CC1 [Compound A-426, N4-{2-[4-(3,3-dimethylpentanoyl)piperazin-1-yl]phenyl}-N1,N1-dimethylbenzene-1,4-disulfonamide] the AC50 was no more than 2000 nM.
